According to patent publication US20050208468A1, “Assays with primary cells” (priority 2003, published 2005):

Key:
PPARγ = PPARγ activity assay based on PEPCK expression, coded carriers in a shared fluid volume; type: cell-based, human; conditions: four donor samples in a shared fluid volume; four days; FIG. 12
Text: This differentiation may be visualized readily and scored by staining lipid droplets that accumulate in the cytoplasm of the adipocytes during and/or after their differentiation. Furthermore, this adipocyte differentiation and/or activation of PPARγ may be followed by measuring the expression levels (RNA and/or protein) of PPARγ target genes (direct or indirect targets), such as PEPCK (phosphoenolpyruvate carboxykinsae) and/or FABP4 (fatty acid binding protein 4), among others.
Staining was via indirect immunofluorescence. Cells were counterstained with a nuclear dye (Hoechst) for data normalization, here and in other assays. […] Each sample of primary cells corresponds to pre-adipocytes isolated from visceral tissue (samples starting with the letter “V”) or isolated from subcutaneous tissue (samples starting with the letters “SC”) and were supplied by Cambrex. […] Each sample was connected to a distinct class of coded carriers (having a distinct code) to permit identification of the sample after combining the different classes of carrier and samples in a shared volume. […] Lipid accumulation and PEPCK expression were then measured with the samples still disposed in the same microplate wells. […]

[1] = system: primary human renal proximal tubule epithelial (HRPTE) cells; assay: proliferative response (S-phase index) of primary HRPTE cells; type: cell-based; conditions: HRPTE cells in 96-well microplate wells or on coded carriers; various concentrations; FIG. 6
Method: This example describes how multiplexed analysis using coded carriers may be used to assay the effects of camptothecin on the proliferative response of primary human renal proximal tubule epithelial (HRPTE) cells, in accordance with aspects of the present teachings; see FIG. 6.
Specifically, HRPTE cells are grown directly in wells of a standard 96-well microplate, to three different cell densities (indicated as the stated number of cells), or on coded carriers that optionally may be placed in wells of the microplate. An “S-phase index” (e.g., the fraction of cells in the S-phase of the cell cycle) is used as a measure of cell proliferation. […] This reduction may be particularly significant in assays on primary cells, because primary cells typically are difficult to obtain and maintain.

HRPTE cells = assay: cytotoxicity response (death index, live/dead assay) of HRPTE cells; type: cell-based, human; conditions: HRPTE cells in 96-well microplate wells or on coded carriers; various concentrations; FIG. 7
Method: This example describes how multiplexed analysis using coded carriers may be used to study the cytotoxicity response of HRPTE cells to staurosporine, in accordance with aspects of the present teachings; see FIG. 7.
Specifically, HRPTE cells are grown directly attached to wells of a standard 96-well microplate, or on coded carriers that optionally may be placed in wells of the microplate. A “death index” (e.g., the fraction of observed cells that are dead) may be used as a measure of cytotoxicity. The death index may be computed using any suitable mechanism, such as a fluorescence-based “live/dead assay.” In an exemplary version of the assay, live cells are labeled green using a membrane-permeant calcein AM, which is cleaved by esterases in live cells to yield cytoplasmic green fluorescence, and dead cells are labeled red using a membrane-impermeant ethidium homodimer-1, which passes through the compromised membranes of dead cells to label nucleic acids with red fluorescence. […] This reduction may be particularly significant in assays on primary cells, because primary cells typically are difficult to obtain and maintain.

## COc1ccc2c(c1)c(CC(=O)O)c(C)n2C(=O)c1ccc(Cl)cc1 [Indomethacin, indomethacin]
PPARγ
  induction of PEPCK expression as a measure of PPARγ activity: relatively strong induction

## CC[C@@]1(O)C(=O)OCc2c1cc1n(c2=O)Cc2cc3ccccc3nc2-1 [camptothecin]
[1]
  S-phase index (measure of cell proliferation): S-phase index generally decreases with increasing camptothecin concentration

## CN[C@@H]1C[C@H]2O[C@@](C)([C@@H]1OC)n1c3ccccc3c3c4c(c5c6ccccc6n2c5c31)C(=O)NC4 [staurosporine]
HRPTE cells
  death index (fraction of dead cells): generally increases with increasing staurosporine concentration
